Test results published in patent US9493507B2, “Glutathione-elevating compositions and uses thereof” (Oneday— Biotech And Pharma Ltd., priority 2012, dated 2016).
“Also recorded” adds a separate entry of the source.

Test system: murine erythrocytes
Test: Effect of DY-65 on GSH, GSSG and GSH:GSSG ratio in murine erythrocytes exposed to hydrogen peroxide
Type: cell-based, mice
Settings: DY-65 5 μM
Experimental: The in vitro efficacy of peptide DY-65 in suppressing the decrease in the ratio of GSH to GSSG in murine erythrocytes exposed to hydrogen peroxide was tested.
Murine erythrocytes (“Cells”) were prepared by washing freshly harvested whole blood from mice three times in PBS. Cells were resuspended in DMEM at a concentration of 10^6 per mL. All study conditions were evaluated in triplicate.
Hydrogen peroxide (200 μM) was utilized to induce redox stress in murine erythrocytes (“Cells”). Prior to exposure to hydrogen peroxide, cells were randomly allocated to the following experimental groups:
1. Sham (no exposure to hydrogen peroxide; no drug) • a. 2.5 h final incubation
2. Vehicle control (hydrogen peroxide; no drug) • a. 1.0 h final incubation • b. 1.5 h final incubation • c. 2.0 h final incubation • d. 2.5 h final incubation
3. DY-65 (5 μM)+hydrogen peroxide • a. 1.0 h final incubation • b. 1.5 h final incubation • c. 2.0 h final incubation • d. 2.5 h final incubation
Cells at a concentration of 10^6 per mL were incubated with vehicle DMEM (Groups 1 or 2) or peptide DY-65 (Group 3) for 3 hours at 37° C. Thereafter, cells were washed three times with DMEM and resuspended in vehicle DMEM (Group 1) or hydrogen peroxide in DMEM (Groups 2-3) for 1 hour at 37° C.
Thereafter, cells were washed three times with DMEM and resuspended in DMEM at 37° C., 10^6 per mL, with peptide DY-65 (Group 3) or without peptide DY-65 (Groups 1-2). The duration of final incubation was 1.0, 1.5, 2.0, or 2.5 h. Cells were then pelleted, lysed, and processed for measurement of GSH and GSSG using a Glutathione Assay kit sold by Cayman (Chemical Item Number 703002). Data were expressed as micromoles of GSH or GSSG per 1 million erythrocytes.
Given 9 conditions, 3 replicates per condition, and 2 endpoints (GSH and GSSG), a total of 54 wells were incubated.
Data analysis. All values in the figure and text below were expressed as mean±standard deviation (SD) and standard error (SE) of n observations. The results were analyzed by one-way ANOVA followed by Tukey's post-hoc test for multiple comparisons. […]

With “N-acetyl-Cys-Lys-Met-Cys-NH2 (Ac-CKMC-NH2; cysteine pairing not given here) [DY-65]” the “effect on GSH concentration after hydrogen peroxide” value (hydrogen peroxide 200 μM 1 h, 1 h final incubation, FIG. 2C) was “completely protective; also recorded: increase GSH”, the “effect on GSSG elevation in response to hydrogen peroxide” value (hydrogen peroxide 200 μM 1 h, final incubation 1.0-2.5 h, FIG. 2D) was “uniformly effective in suppressing the elevation of GSSG; also recorded: decrease GSSG” and the “ratio of GSH to GSSG” value (hydrogen peroxide 200 μM, earliest time point, 1 h post exposure, FIG. 2E) was “clear benefit”.
